Measured values taken from PubChem BioAssay (NCI).
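Method: 48-hour compound exposure of cells in 96-well plates, five concentrations, linear interpolation of endpoints. The concentration for full growth arrest is given as TGI.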

What was measured:
Test in all cases: inhibition of tumour cell growth, NCI panel, 48 h
NCI-H226 lung = system: NCI-H226 lung
EKVX NSCLC = system: EKVX NSCLC
OVCAR-8 ovarian = system: OVCAR-8 ovarian
OVCAR-4 ovarian = system: OVCAR-4 ovarian
NCI-H460 lung = system: NCI-H460 lung
UACC-62 melanoma = system: UACC-62 melanoma
COLO 205 colon = system: COLO 205 colon
IGROV1 ovarian = system: IGROV1 ovarian
SF-295 CNS = system: SF-295 CNS
SR leukemia = system: SR leukemia
TK-10 renal = system: TK-10 renal
OVCAR-3 ovarian = system: OVCAR-3 ovarian
MCF7 breast = system: MCF7 breast
ACHN renal = system: ACHN renal
786-0 renal = system: 786-0 renal
MDA-MB-231 breast = system: MDA-MB-231 breast
KM12 colon = system: KM12 colon
HCT-116 colon = system: HCT-116 colon
SK-MEL-28 melanoma = system: SK-MEL-28 melanoma
SK-MEL-5 melanoma = system: SK-MEL-5 melanoma
M14 melanoma = system: M14 melanoma
MDA-N = system: MDA-N
SNB-75 CNS = system: SNB-75 CNS
SF-539 CNS = system: SF-539 CNS
SN12C renal = system: SN12C renal
CCRF-CEM leukemia = system: CCRF-CEM leukemia
CAKI-1 renal = system: CAKI-1 renal
HCC-2998 colon = system: HCC-2998 colon
NCI-H23 lung = system: NCI-H23 lung
HS 578T breast = system: HS 578T breast
HOP-62 NSCLC = system: HOP-62 NSCLC
PC-3 prostate = system: PC-3 prostate
A549 NSCLC = system: A549 NSCLC
U251 CNS = system: U251 CNS
RXF 393 renal = system: RXF 393 renal
SF-268 CNS = system: SF-268 CNS
SNB-19 CNS = system: SNB-19 CNS
UO-31 renal = system: UO-31 renal
MDA-MB-435 = system: MDA-MB-435
SK-OV-3 ovarian = system: SK-OV-3 ovarian
NCI/ADR-RES ovarian = system: NCI/ADR-RES ovarian
MOLT-4 leukemia = system: MOLT-4 leukemia
DU-145 prostate = system: DU-145 prostate
BT-549 breast = system: BT-549 breast
HCT-15 colon = system: HCT-15 colon
T-47D breast = system: T-47D breast
RPMI-8226 leukemia = system: RPMI-8226 leukemia
UACC-257 melanoma = system: UACC-257 melanoma
HL-60(TB) leukemia = system: HL-60(TB) leukemia
NCI-H522 lung = system: NCI-H522 lung
SW-620 colon = system: SW-620 colon
K-562 leukemia = system: K-562 leukemia
SK-MEL-2 melanoma = system: SK-MEL-2 melanoma
HT29 colon = system: HT29 colon
OVCAR-5 ovarian = system: OVCAR-5 ovarian
HOP-92 NSCLC = system: HOP-92 NSCLC
LOX IMVI melanoma = system: LOX IMVI melanoma
MALME-3M melanoma = system: MALME-3M melanoma

In the case of `COc1ccc(/C=C2\Oc3cc(OC(C)=O)ccc3C2=O)cc1`, the TGI (NCI-H226 lung) is reported as greater than 100 µM, the TGI (EKVX NSCLC) is reported as greater than 100 µM and the TGI (OVCAR-8 ovarian) is reported as greater than 100 µM. For the same molecule, the TGI (OVCAR-4 ovarian) was greater than 100 µM, the TGI (NCI-H460 lung) was greater than 100 µM and the TGI (UACC-62 melanoma) was greater than 100 µM. For the same molecule, the TGI (COLO 205 colon) was greater than 100 µM, the TGI (IGROV1 ovarian) was greater than 100 µM and the TGI (SF-295 CNS) was greater than 100 µM. It also gave a TGI (SR leukemia) greater than 100 µM, a TGI (TK-10 renal) greater than 100 µM and a TGI (OVCAR-3 ovarian) greater than 100 µM. For the same molecule, the TGI (MCF7 breast) was greater than 100 µM, the TGI (ACHN renal) was greater than 100 µM and the TGI (786-0 renal) was greater than 100 µM. The TGI (MDA-MB-231 breast) was greater than 100 µM, the TGI (KM12 colon) was greater than 100 µM and the TGI (HCT-116 colon) was greater than 100 µM. The TGI (SK-MEL-28 melanoma) was greater than 100 µM, the TGI (SK-MEL-5 melanoma) was greater than 100 µM and the TGI (M14 melanoma) was greater than 100 µM. For the same molecule, the TGI (MDA-N) was greater than 100 µM, the TGI (SNB-75 CNS) was greater than 100 µM and the TGI (SF-539 CNS) was greater than 100 µM. The TGI (SN12C renal) was greater than 100 µM, the TGI (CCRF-CEM leukemia) was greater than 100 µM and the TGI (CAKI-1 renal) was 86.7 µM. The TGI (HCC-2998 colon) was greater than 100 µM, the TGI (NCI-H23 lung) was greater than 100 µM and the TGI (HS 578T breast) was greater than 100 µM. For the same molecule, the TGI (HOP-62 NSCLC) was greater than 100 µM, the TGI (PC-3 prostate) was greater than 100 µM and the TGI (A549 NSCLC) was greater than 100 µM. For the same molecule, the TGI (U251 CNS) was greater than 100 µM, the TGI (RXF 393 renal) was greater than 100 µM and the TGI (SF-268 CNS) was greater than 100 µM. For the same molecule, the TGI (SNB-19 CNS) was greater than 100 µM, the TGI (UO-31 renal) was greater than 100 µM and the TGI (MDA-MB-435) was greater than 100 µM. For the same molecule, the TGI (SK-OV-3 ovarian) was greater than 100 µM, the TGI (NCI/ADR-RES ovarian) was greater than 100 µM and the TGI (MOLT-4 leukemia) was greater than 100 µM. It also gave a TGI (DU-145 prostate) greater than 100 µM, a TGI (BT-549 breast) greater than 100 µM and a TGI (HCT-15 colon) greater than 100 µM. The TGI (T-47D breast) was greater than 100 µM, the TGI (RPMI-8226 leukemia) was greater than 100 µM and the TGI (UACC-257 melanoma) was greater than 100 µM. For the same molecule, the TGI (HL-60(TB) leukemia) was greater than 100 µM, the TGI (NCI-H522 lung) was 45.1 µM and the TGI (SW-620 colon) was greater than 100 µM. It also gave a TGI (K-562 leukemia) greater than 100 µM.

`CCOC(=O)C1C(=O)C=C(c2cc(C)ccc2O)CC1c1cccc(Cl)c1` (configuration not stated) was tested, and the TGI (NCI-H226 lung) was 73.5 µM, the TGI (EKVX NSCLC) was greater than 100 µM and the TGI (OVCAR-8 ovarian) was greater than 100 µM. For the same molecule, the TGI (OVCAR-4 ovarian) was 56.2 µM, the TGI (NCI-H460 lung) was greater than 100 µM and the TGI (UACC-62 melanoma) was 47 µM. The TGI (COLO 205 colon) was 34.9 µM, the TGI (SK-MEL-2 melanoma) was 46.7 µM and the TGI (IGROV1 ovarian) was 51.1 µM. For the same molecule, the TGI (SF-295 CNS) was 76.3 µM, the TGI (SR leukemia) was 34.9 µM and the TGI (TK-10 renal) was 57.7 µM. For the same molecule, the TGI (OVCAR-3 ovarian) was greater than 100 µM, the TGI (MCF7 breast) was 74.5 µM and the TGI (ACHN renal) was 51.7 µM. For the same molecule, the TGI (786-0 renal) was greater than 100 µM, the TGI (HT29 colon) was 86.7 µM and the TGI (OVCAR-5 ovarian) was greater than 100 µM. For the same molecule, the TGI (MDA-MB-231 breast) was 83.4 µM, the TGI (KM12 colon) was 69 µM and the TGI (HCT-116 colon) was greater than 100 µM. The TGI (SK-MEL-5 melanoma) was 50.5 µM, the TGI (M14 melanoma) was greater than 100 µM and the TGI (MDA-N) was 29.8 µM. The TGI (HOP-92 NSCLC) was 61.5 µM, the TGI (SF-539 CNS) was 47 µM and the TGI (SN12C renal) was 95.9 µM. For the same molecule, the TGI (CCRF-CEM leukemia) was 94.7 µM, the TGI (CAKI-1 renal) was greater than 100 µM and the TGI (HCC-2998 colon) was 69.8 µM. It also gave a TGI (NCI-H23 lung) of 88.6 µM, a TGI (HS 578T breast) of 58 µM and a TGI (HOP-62 NSCLC) greater than 100 µM. It also gave a TGI (PC-3 prostate) greater than 100 µM, a TGI (A549 NSCLC) of 49.1 µM and a TGI (LOX IMVI melanoma) of 57.4 µM. It also gave a TGI (U251 CNS) of 40.7 µM, a TGI (RXF 393 renal) of 54.5 µM and a TGI (SF-268 CNS) of 97.3 µM. It also gave a TGI (SNB-19 CNS) of 44.2 µM, a TGI (UO-31 renal) of 65.9 µM and a TGI (MDA-MB-435) of 8.23 µM. It also gave a TGI (SK-OV-3 ovarian) of 79.7 µM, a TGI (NCI/ADR-RES ovarian) of 54.2 µM and a TGI (MOLT-4 leukemia) greater than 100 µM. It also gave a TGI (DU-145 prostate) greater than 100 µM, a TGI (BT-549 breast) greater than 100 µM and a TGI (HCT-15 colon) of 13.2 µM. The TGI (T-47D breast) was greater than 100 µM, the TGI (RPMI-8226 leukemia) was 48.3 µM and the TGI (HL-60(TB) leukemia) was 63.5 µM. For the same molecule, the TGI (NCI-H522 lung) was 37 µM, the TGI (SW-620 colon) was greater than 100 µM and the TGI (MALME-3M melanoma) was 75.6 µM. For the same molecule, the TGI (K-562 leukemia) was 53.8 µM.
